Source: patent publication US20240100006A1, “COMPOSITIONS AND METHODS USING AT LEAST ONE GLYCINE OR DERIVATIVE THEREOF AND AT LEAST ONE LARGE NEUTRAL AMINO ACID AND/OR CATIONIC AMINO ACID OR PRECURSOR THEREOF” (SOCIETE DES PRODUITS NESTLE S.A., priority 2020, published 2024)
Entries after “also recorded” stand apart in the source; their conditions may differ.

System: isolated mitochondria from skeletal muscle of zebrafish
Assay: Acute oxidative stress and mitochondrial high-resolution respirometry
Type: in vivo
Description: Following the stress, fish were divided into controls and treatment groups. […] Fish exposed to the glycine and glucose treatment were incubated in water containing the compound of interest for 2 h at 28° C. at the following doses: 50, 200, 450 μM (Sigma-Aldrich) for glycine; 500 μM and 5 mM (Sigma-Aldrich) for glucose; 450 μM for glycine, arginine and methionine (Sigma-Aldrich). […] After BCA quantification of protein concentration, 150 μg of crude extract were used for high-resolution respirometry quantification. […] Up to three 02k instruments ([…]) were used in parallel. Experiments were performed at 28° C. in modified MiR05 (110 mM sucrose, 0.5 mM EGTA, 3 mM MgCl2, 20 mM taurine, 10 mM KH2PO4, 20 mM HEPES and 0.1% BSA essentially fatty acid free). Respiration of isolated mitochondria was determined using substrate-uncoupler-inhibitor titration (SUIT) protocols (Pesta and […], Methods Mol Biol. 2012; 810:25-58) with modifications. […] CI respiration was calculated as the difference between total respiration (CI+CII) and the addition of CI inhibitor rotenone (0.5 μM); CII respiration was calculated as the difference between inhibited CI respiration and the addition of CII inhibitor malonic acid (5 mM). Total respiration (CI+CII, Tot resp) was assessed as the difference of the respiration in presence of all substrates and the total inhibition of CI and CII.

Row | Structure (SMILES) | Complex I dependent respiration (acute oxidative stress inducer, 3 μM in water for 2 h at 28° C., FIG. 3) | mitochondrial respiration (O2 consumption; Complex I dependent respiration) after acute oxidative stress (adult AB zebrafish, 3 μM menadione 2 h at 28° C., then compound in water 2 h, glycine 50, 200, 450 μM, glucose 500 μM and 5 mM, FIG. 3, n=3 per condition)
1 | CC1=CC(=O)c2ccccc2C1=O [menadione, Menadione, reference compound] | decreasing Complex I dependent respiration | –
2 | NCC(=O)O [glycine] | – | restores respiratory levels; also recorded: able to restore mitochondrial respiration
